Reference: ChEMBL document CHEMBL1125524, “Adenosine A1 antagonists. 2. Structure-activity relationships on diuretic activities and protective effects against acute renal failure” (J Med Chem, 1992)

Tests used:
Rattus norvegicus [1] = experiment: Serum creatinine concentration measured after intraperitoneal administration of 1 mg/kg of compound to rats(vehicle 3.06+/-0.68); format: functional
Rattus norvegicus [2] = experiment: Serum creatinine concentration measured after intraperitoneal administration of 10 mg/kg of compound to rats(vehicle 4.26+/-0.39); format: functional
Rattus norvegicus [3] = experiment: Effect on urinary excretion potassium and sodium after oral administration of 1.6 mg/kg to rats(potassium and sodium excretion in control rat is 0.158+/-0.034); format: functional, Urine
Rattus norvegicus [4] = experiment: Percent inhibition of serum creatinine by the compound given as ratio of Cr value in treated to vehicle treated ones after intraperitoneal administration of 10 mg/kg of compound to rats(vehicle 4.26+/-0.39); format: functional; conditions: ip
Rattus norvegicus [5] = experiment: Ratio of urinary excretion value (urinary volume) in treated rats to that in control rats, at a peroral dose of 1.6 mg/Kg; format: functional, Urine
Rattus norvegicus [6] = experiment: Ratio of urinary excretion value (urinary volume) in treated rats to that in control rats, at a peroral dose of 25 mg/Kg; format: functional, Urine
Rattus norvegicus [7] = experiment: Percent inhibition of serum creatinine by the compound given as ratio of Cr value in treated to vehicle treated ones after intraperitoneal administration of 1 mg/kg of compound to rats(vehicle 3.06+/-0.68); format: functional; conditions: ip
Rattus norvegicus [8] = experiment: Ratio of sodium ion/potassium ion concentration in treated rats to that in control rats, at a peroral dose of 1.6 mg/Kg; format: functional
Rattus norvegicus [9] = experiment: Ratio of sodium ion/potassium ion concentration in treated rats to that in control rats, at a peroral dose of 25 mg/Kg; format: functional
Rattus norvegicus [10] = experiment: Ratio of urinary excretion value (Na+ concentration) in treated rats to that in control rats, at a peroral dose of 1.6 mg/Kg; format: functional, Urine
Rattus norvegicus [11] = experiment: Ratio of urinary excretion value (Na+ concentration) in treated rats to that in control rats, at a peroral dose of 25 mg/Kg; format: functional, Urine
Rattus norvegicus [12] = experiment: Effect on urinary excretion potassium and sodium after oral administration of 25 mg/kg to rats(potassium and sodium excretion in control rat is 0.079+/-0.007); format: functional, Urine
Rattus norvegicus [13] = experiment: Oral diuretic activity was measured after oral administration of 25 mg/kg to rats(control volume is 0.69+/-0.03); format: functional, Urine
Rattus norvegicus [14] = experiment: Urea nitrogen concentration measured after intraperitoneal administration of 10 mg/kg of compound to rats(vehicle 146.7+/-10.1); format: functional
Rattus norvegicus [15] = experiment: Urea nitrogen concentration measured after intraperitoneal administration of 1 mg/kg of compound to rats(vehicle 120.9+/-23.3); format: functional
Rattus norvegicus [16] = experiment: Percent inhibition of serum creatinine by the compound given as ratio of UN value in treated to vehicle treated ones after intraperitoneal administration of 10 mg/kg of compound to rats(vehicle 146.7+/-10.1); format: functional; conditions: ip
Rattus norvegicus [17] = experiment: Percent inhibition of serum creatinine by the compound given as ratio of UN value in treated to vehicle treated ones after intraperitoneal administration of 1 mg/kg of compound to rats(vehicle 120.9+/-23.3); format: functional; conditions: ip
Rattus norvegicus [18] = experiment: Oral diuretic activity was measured after oral administration of 1.6 mg/kg to rats(control volume is 1.12+/-0.33); format: functional, Urine
Adenosine A2 receptor = Adenosine A2 receptor (Rattus norvegicus, UniProt P29276+P30543)
Rattus norvegicus [19] = experiment: Serum creatinine concentration measured after intraperitoneal administration of 1 mg/kg of compound to rats(vehicle 5.07+/-0.33); format: functional
Rattus norvegicus [20] = experiment: Serum creatinine concentration measured after intraperitoneal administration of 0.01 mg/kg of compound to rats(vehicle 3.92+/-0.23); format: functional
Rattus norvegicus [21] = experiment: Serum creatinine concentration measured after intraperitoneal administration of 0.1 mg/kg of compound to rats(vehicle 4.82+/-0.17); format: functional
Rattus norvegicus [22] = experiment: Effect on urinary excretion potassium and sodium after oral administration of 0.1 mg/kg to rats(potassium and sodium excretion in control rat is 0.180+/-0.017); format: functional, Urine
Rattus norvegicus [23] = experiment: Urea nitrogen concentration measured after intraperitoneal administration of 1 mg/kg of compound to rats(vehicle 195.8+/-14.4); format: functional
Rattus norvegicus [24] = experiment: Effect on urinary excretion potassium and sodium after oral administration of 0.4 mg/kg to rats(potassium and sodium excretion in control rat is 0.147+/-0.015); format: functional, Urine
Rattus norvegicus [25] = experiment: Ratio of urinary excretion value (urinary volume) in treated rats to that in control rats, at a peroral dose of 0.1 mg/Kg; format: functional, Urine
Rattus norvegicus [26] = experiment: Ratio of urinary excretion value (urinary volume) in treated rats to that in control rats, at a peroral dose of 0.4 mg/Kg; format: functional, Urine
Rattus norvegicus [27] = species on record: Rattus norvegicus; experiment: Ratio of sodium ion/potassium ion concentration in treated rats to that in control rats, at a peroral dose of 0.1; format: functional
Rattus norvegicus [28] = experiment: Ratio of sodium ion/potassium ion concentration in treated rats to that in control rats, at a peroral dose of 0.4 mg/Kg; format: functional
Rattus norvegicus [29] = experiment: Ratio of urinary excretion value (Na+ concentration) in treated rats to that in control rats, at a peroral dose of 0.1 mg/Kg; format: functional, Urine
Rattus norvegicus [30] = experiment: Ratio of urinary excretion value (Na+ concentration) in treated rats to that in control rats, at a peroral dose of 0.4 mg/Kg; format: functional, Urine
Rattus norvegicus [31] = experiment: Percent inhibition of serum creatinine by the compound given as ratio of Cr value in treated to vehicle treated ones after intraperitoneal administration of 0.01 mg/kg of compound to rats(vehicle 3.92+/-0.23); format: functional; conditions: ip
Rattus norvegicus [32] = experiment: Effect on urinary excretion potassium and sodium after oral administration of 1.6 mg/kg to rats(potassium and sodium excretion in control rat is 0.169+/-0.012); format: functional, Urine
Rattus norvegicus [33] = experiment: Percent inhibition of serum creatinine by the compound given as ratio of Cr value in treated to vehicle treated ones after intraperitoneal administration of 0.1 mg/kg of compound to rats(vehicle 4.82+/-0.17); format: functional; conditions: ip
Rattus norvegicus [34] = experiment: Oral diuretic activity was measured after oral administration of 0.4 mg/kg to rats(control volume is 0.96+/-0.09); format: functional, Urine
Rattus norvegicus [35] = experiment: Urea nitrogen concentration measured after intraperitoneal administration of 0.1 mg/kg of compound to rats(vehicle 151.5+/-7.4); format: functional
Rattus norvegicus [36] = experiment: Oral diuretic activity was measured after oral administration of 1.6 mg/kg to rats(control volume is 0.97+/-0.05); format: functional, Urine
Rattus norvegicus [37] = experiment: Oral diuretic activity was measured after oral administration of 0.1 mg/kg to rats(control volume is 1.05+/-0.11); format: functional, Urine
Rattus norvegicus [38] = experiment: Urea nitrogen concentration measured after intraperitoneal administration of 0.01 mg/kg of compound to rats(vehicle 141.3+/-8.3); format: functional
Rattus norvegicus [39] = experiment: Percent inhibition of Urea nitrogen by the compound given as ratio of UN value in treated to vehicle treated ones after intraperitoneal administration of 1 mg/kg of compound to rats(vehicle 195.8+/-14.4); format: functional; conditions: Rattus norvegicus, ip
Rattus norvegicus [40] = experiment: Percent inhibition of Urea nitrogen by the compound given as ratio of UN value in treated to vehicle treated ones after intraperitoneal administration of 0.01 mg/kg of compound to rats(vehicle 141.3+/-8.3); format: functional; conditions: ip
Rattus norvegicus [41] = experiment: Percent inhibition of Urea nitrogen by the compound given as ratio of UN value in treated to vehicle treated ones after intraperitoneal administration of 0.1 mg/kg of compound to rats(vehicle 151.5+/-7.4); format: functional; conditions: ip
Rattus norvegicus [42] = species on record: Rattus norvegicus; experiment: animal or person; conditions: ip, read-out: Inhibition, dose 1 mg/kg, route intraperitoneal

In the case of CCCn1c(=O)c2nc(C[C@H]3CC4CCC3C4)[nH]c2n(CCC)c1=O (some centres not stated), the Cr (Rattus norvegicus [1]) is reported as 2.75 mg/dL, the Cr (Rattus norvegicus [2]) is reported as 2.53 mg/dL and the Na (Rattus norvegicus [3]) is reported as 0.131 m equiv 6hr-1 100g-1. It also gave an inhibition in vivo at 10 mg/kg (Rattus norvegicus [4]) of 41%, a T/C (Rattus norvegicus [5]) of 0.77 and a T/C (Rattus norvegicus [6]) of 2.41. For the same compound, the inhibition in vivo at 1 mg/kg (Rattus norvegicus [7]) was 10%, the “Na+/K+” value (Rattus norvegicus [8]) was 0.85 and the “Na+/K+” value (Rattus norvegicus [9]) was 2.12. It also gave a T/C (Rattus norvegicus [10]) of 0.83, a T/C (Rattus norvegicus [11]) of 2.91 and a Na (Rattus norvegicus [12]) of 0.23 m equiv 6hr-1 100g-1. The Urine volume (Rattus norvegicus [13]) was 1.66 ml 6hr-1 100g-1, the UN (Rattus norvegicus [14]) was 90.9 mg/dL and the UN (Rattus norvegicus [15]) was 104.7 mg/dL. The inhibition in vivo at 10 mg/kg (Rattus norvegicus [16]) was 38%, the inhibition in vivo at 1 mg/kg (Rattus norvegicus [17]) was 13% and the Urine volume (Rattus norvegicus [18]) was 0.86 ml 6hr-1 100g-1. The Ki (Adenosine A2 receptor) was 1000 nM.
Compound Cn1c(=O)c2nc(C34CC5CC(CC3C5)C4)[nH]c2n(C)c1=O has a Cr (Rattus norvegicus [19]) of 2.88 mg/dL, a Cr (Rattus norvegicus [20]) of 3.53 mg/dL and a Cr (Rattus norvegicus [21]) of 3.14 mg/dL. The Na (Rattus norvegicus [22]) was 0.163 m equiv 6hr-1 100g-1, the UN (Rattus norvegicus [23]) was 116.7 mg/dL and the Na (Rattus norvegicus [24]) was 0.257 m equiv 6hr-1 100g-1. For the same compound, the T/C (Rattus norvegicus [25]) was 0.82, the T/C (Rattus norvegicus [26]) was 1.66 and the T/C (Rattus norvegicus [5]) was 2.34. For the same compound, the “Na+/K+” value (Rattus norvegicus [27]) was 0.97, the “Na+/K+” value (Rattus norvegicus [28]) was 1.54 and the “Na+/K+” value (Rattus norvegicus [8]) was 1.67. For the same compound, the T/C (Rattus norvegicus [29]) was 0.91, the T/C (Rattus norvegicus [30]) was 1.74 and the T/C (Rattus norvegicus [10]) was 2.36. For the same compound, the inhibition in vivo at 0.01 mg/kg (Rattus norvegicus [31]) was 10%, the Na (Rattus norvegicus [32]) was 0.398 m equiv 6hr-1 100g-1 and the inhibition in vivo at 0.1 mg/kg (Rattus norvegicus [33]) was 35%. It also gave a Urine volume (Rattus norvegicus [34]) of 1.59 ml 6hr-1 100g-1, a UN (Rattus norvegicus [35]) of 97.3 mg/dL and a Urine volume (Rattus norvegicus [36]) of 2.27 ml 6hr-1 100g-1. It also gave a Urine volume (Rattus norvegicus [37]) of 0.86 ml 6hr-1 100g-1, a UN (Rattus norvegicus [38]) of 133.4 mg/dL and an inhibition in vivo at 1 mg/kg (Rattus norvegicus [39]) of 40%. It also gave an inhibition in vivo at 0.01 mg/kg (Rattus norvegicus [40]) of 6%, an inhibition in vivo at 0.1 mg/kg (Rattus norvegicus [41]) of 36% and a Ki (Adenosine A2 receptor) of 1200 nM. It also gave an inhibition in vivo at 1 mg/kg (Rattus norvegicus [42]) of 43%.
